Assay results taken from patent US20220349876A1, “USE OF DKK1 INHIBITOR IN PREVENTION AND/OR TREATMENT OF TUMOR CACHEXIA AND DISEASES ASSOCIATED WITH DIABETES” (SHANGHAI DONGTSU BIOSCIENCES CO., LTD., priority 2019, published 2022).
“Also recorded” adds a separate entry of the source.

Tests used:
[1] = system: Leptin−/− mice; assay: Leptin−/− mice injected with D-glucose, MDC rescue; format: in vivo, mouse; conditions: 6-week-old Leptin−/− mice, D-glucose every 2 h for 24 h
Protocol: The in vivo rescue experiment of MDC in Leptin^−/− mice was performed by pre-intraperitoneal injection of MDC in 6-week-old Leptin^−/− mice (diluted in sterile PBS, 10 mg/kg) or the corresponding volume of DMSO (diluted in sterile PBS). The injected dose of MDC in Leptin^−/− mice should be calculated based on the body weight of 6-week-old littermates of WT mice. After 1 h of MDC intervention, 50% D-glucose or the corresponding volume of PBS was injected intraperitoneally. The procedure of injecting D-glucose into Leptin^−/− mice was as follows: 12 injections were performed every 2 hours during the 24-hour period, and the injection dose of D-glucose was fixed at the first dose (2 g/kg).

[2] = system: CT26 tumor-bearing mice; assay: Survival of CT26 tumor-bearing mice (Kaplan-Meier); conditions: mouse, in vivo; for survival of tumor-bearing mice: ip
[3] = system: CT26 tumor-bearing mice; assay: Tumor cachexia in CT26 tumor-bearing mice: tumor-free body weight, muscle weight, muscle membrane proteins; format: in vivo, mouse
[4] = system: LRP6 and Kremen2; assay: Intramuscular injection of Dkk1, Western blot of membrane LRP6 and Kremen2; format: in vivo, mouse
Protocol: Wild-type mice and β-arrestin2+/−KO mice were injected into the left quadriceps (0.25 mg/kg) and an equal volume of PBS was injected into the right leg as controls. MDC (10 mg/kg), IGFBP-4/H95P (1.7 mg/kg) or PBS were injected in combination with Dkk1 as a control to observe the effects of drugs on Dkk1-induced signal transduction. After 48 hours, the mice were sacrificed, and the left and right quadriceps were taken to measure the […].
Membrane proteins were extracted according to the instructions of Membrane Protein Extraction Kit (Sangon Biotech, China). Western blot analysis omitted. Antibodies for WB analysis were purchased from Cell Signaling Technology and Proteintech.

[5] = system: STZ-induced diabetic mice; assay: STZ-induced type 1 diabetes mouse model with insulin or MDC rescue; format: in vivo
Protocol: STZ-induced diabetes is a chemical modeling method for diabetes. Its full name is streptozotocin, which is a broad-spectrum antibiotic isolated from achromatic streptomycin. It can selectively damage islet 13 cells in a short period of time, causing 13 cell necrosis, resulting in varying degrees of blood insulin drop and blood sugar rise, resulting in insulin-dependent type 1 diabetes mellitus. […] Modelling criteria are non-fasting blood glucose values above 13.8 mM (250 mg/dl). The modeling steps are as follows: (4) According to the body weight, mice in the model group were injected intraperitoneally with 2% STZ-citric acid solution (160 mg/kg), and the mice in the control group were intraperitoneally injected with the corresponding volume of citrate buffer. 2 h after the injection, the mice were fed back. […] Specific steps are as follows: (3) According to the body weight, the insulin rescue group was subcutaneously injected with diluted insulin (1 U/kg/day), once a day at the same time for 7 consecutive days, and the control group was given a corresponding volume of normal saline. […] Body weight and random blood glucose were measured at different time points after injection. […] (1) Sample preparation: Store the freshly obtained mouse blood in an EDTA anticoagulation tube, stand at room temperature for 10 min, centrifuge at 1000 g for 15 min, and collect the supernatant, namely plasma. If it cannot be detected immediately, it should be subpackaged and stored at −80° C. to avoid repeated freezing. If precipitation occurs during storage, it should be fully thawed at room temperature before use, and centrifuged again.

[6] = system: β-arrestin1/2; assay: β-arrestin1/2 translocation in HUVEC cells (Western blot); format: cell-based
Protocol: (§1) (5) Add 100 μl (cell) or 200 μl (tissue) A solution to each sample, and resuspend the cell pellet with a pipette to completely disperse the pellet. The tissue pellet should be fully homogenized on ice with a homogenizer, and the ice bath should be used for 15 min.
(§2) (10) Add 50 μl (cells) or 100 μl (tissue) B solution to each sample, resuspend the pellet in Vortex at the highest speed for 10 s, ice bath for 10 min, and repeat twice to fully extract membrane proteins.
(§3) Protein electrophoresis gels are double-layered gels, including an upper stacking gel and a lower separating gel. The concentration of the stacking gel is 5%, and the concentration of the separating gel is determined according to the molecular weight of the target protein. In this study, large molecular weight proteins (LRP5/6, β-catenin, β-arrestin1/2) used 8%-5% double-layer gel, and small molecular weight proteins (γH2AX, p53, p21, Bcl-2, Bax, Cleaved Caspase-3) used 12%-5% double-layer gel. In addition, the number of wells (10 wells or 15 wells) and thickness (1 mm or 1.5 mm) of the preparation gel were selected according to the number and volume of protein samples loaded. The gel formulation is shown in the experimental material section, and the preparation steps are as follows: […]

[7] = system: wild-type mice heart; assay: Local injection of Dkk1 protein into the heart combined with MDC or BIM-46187; format: in vivo, mouse
Protocol: In the experiment of local injection of Dkk1 purified protein into the heart combined with MDC intervention, 10-week-old wild-type male mice were selected, the left chest was depilated, and intraperitoneal injection of MDC (diluted in sterile PBS, 10 mg/kg) or the corresponding volume of DMSO (diluted in sterile PBS) and injected at the same time every day thereafter. After 1 h of MDC intervention, cardiac Dkk1 protein injection was performed. The mice were given continuous inhalation anesthesia with 1% isoflurane and oxygenated with a ventilator, and then the fourth intercostal space near the sternum was opened to expose the heart. Using a 200 μl microsyringe, Dkk1 (10 μg of Dkk1 per heart, dissolved in 30 μl PBS) or an equal volume of PBS was injected locally at three sites in the heart. Of these, two sites are on the border around the left ventricle, and one site enters the myocardium of the left ventricle. After the injection, the wound was sutured, the anesthesia was removed, and the mice were awake. After MDC was continuously intervened for 2 days, the mice were anesthetized and the materials were collected.
In addition to injecting Dkk1 protein alone into the heart, we also need to perform experiments of local injection of Dkk1 combined with BIM-46187 into mouse hearts. According to the experimental grouping, it was divided into cardiac injections of four different solutions, including PBS, Dkk1, BIM-46187, and a mixture of Dkk1 and BIM-46187. The dosage of Dkk1 per heart is 10 μg, and the dosage of BIM-46187 is 2.4 ng, diluted with 30 μl PBS and then injected into the heart. The specific operation steps are the same as above. After the injection, the wound was sutured, the anesthesia was removed, and the mice were awake. Two days after the injection, the mice were anesthetized and the materials were collected.

[8] = system: HUVEC cells; assay: γH2AX DNA damage response in HUVEC cells (Western blot); format: cell-based
Protocol: (2) The transfection system of a 3.5 cm petri dish was prepared as follows: 1 μl of siRNA Oligo/Red (concentration of the original solution was 20 μM) was added to an EP tube containing 250 μl of pure Opti-MEM and mixed, and 1.5 μl of RNAiMAX (transfection Reagent) was added to the flow tube containing 250 μl of pure Opti-MEM and mixed, and then all the liquid in the EP tube was added to the flow tube and mixed, and allowed to stand at room temperature for 15 min.
(3) The prepared transfection system was added to a 3.5 cm culture dish, and the cells were cultured for 24-48 h, then the samples were collected and the total cell protein was extracted, and the knockdown effect of the gene was identified by Western Blotting.
(3) Add 150 μl of total protein lysate to each cell sample to make the lysate fully contact with the cells, scrape off the cell lysate with a scraper, collect it into a pre-cooled EP tube, and take an ice bath for 15 min.
as §3

[9] = system: GPCR signaling pathways and cachexia-related pathways; assay: RNA-Seq analysis of quadriceps femoris; format: in vivo, mouse; conditions: direct intramuscular injection of Dkk1 protein into the lower limbs
Protocol: Total RNA was extracted using Trizol kit (Lige technology), RNA sequencing library was constructed from the extracted RNA using Illlumina library preparation protocol, RNA-seq was performed on Illlumina HiSeq4000 platform, using two-terminal protocol, the length of both regions was 150 bp. Sequencing reads were aligned to annotated mouse transcripts (mm10) using hisat2 (v2.1.0). Using GFOLD (v1.1.4) to calculate the gene expression level and has found differentially expressed genes. The parameters are as follows: GFOLD value≠0, and the changing value of the two samples is ≥1.35. The RNA-seq data collector GSE121873 was uploaded to the gene expression comprehensive database. KEGG pathway analysis was performed on the defined genes.

[10] = system: LRP5/6; assay: Membrane LRP5/6 endocytosis and nuclear β-catenin in HUVEC cells (Western blot); format: cell-based
Protocol: as §1, §2
(11) Aspirate the residual supernatant completely, and add 50 μl of nuclear protein extract to each sample.
as §3

In the case of `CN(C)c1cccc2c(S(=O)(=O)NCCCCCN)cccc12` [MDC], the “down-regulation of LRP5/6 on cardiac membranes induced by glucose injection” value [1] is reported as “significantly reversed the down-regulation of LRP5/6 on cardiac membranes”, the “up-regulation of molecular markers of injury induced by glucose injection” value [1] is reported as “significantly reversed” and the “death / shortened survival of tumor-bearing mice induced by Dkk1 injection” value [2] is reported as “prolong the shortening of survival in tumor-bearing mice caused by Dkk1; also recorded: inhibit the rapid death of tumor-bearing mice induced by Dkk1 injection”. For the same molecule, the “survival of tumor-bearing mice” value [2] was “prolongs the survival of CT26 mice”, the “loss of body weight and muscle weight” value [3] was “reverse tumor-induced loss of tumor-free body weight and muscle atrophy; also recorded: completely prevents the loss of body weight and muscle weight” and the “downregulation of LRP6 and Kremen2 on membrane in muscle” value ([3]; Western blot) was “reverses downregulation of LRP6 and Kremen2 on membrane”. The “Dkk1-induced endocytosis / downregulation of membrane LRP6 and Kremen2” value ([4]; simultaneous injection with Dkk1) was “prevents this phenomenon”, the “blood 8-OHdG (ELISA)” value ([5]; STZ diabetic mice) was “prevented the elevation of 8-OHdG” and the blood glucose concentration ([5]; STZ diabetic mice) was “without altering blood glucose concentrations; also recorded: do not alter blood glucose levels”. The “body weight loss of diabetic mice” value ([5]; STZ diabetic mice) was “inhibits; also recorded: suppressed”, the “cardiac p53, p21, Bax/Bcl-2 and Cleaved Caspase-3” value ([5]; STZ diabetic mice, heart) was “inhibits the upregulation of p53, p21, Bax/Bcl-2 and Cleaved Caspase-3” and the “cardiac γH2AX” value ([5]; STZ diabetic mice, heart) was “γH2AX activation in diabetic hearts can also be inhibited”. For the same molecule, the “damage to myocardial structure (HE staining)” value ([5]; STZ diabetic mice, heart) was “prevented”, the “translocation of cardiac β-arrestin1/2 in diabetic hearts” value ([5]; STZ diabetic mice, heart) was “prevented” and the “overall LRP5/6 and nuclear or overall β-catenin expression levels” value ([5]; STZ diabetic mice, heart, MDC) was “remain unchanged”. The “LRP5/6 on the cardiac membrane” value ([5]; STZ diabetic mice, heart, Western blot) was “STZ-induced downregulation of LRP5/6 in diabetic cardiac membranes can be inhibited”, the “translocation of insulin receptors on the cardiac membrane or in the plasma” value ([5]; substance alone (FIG. 19G)) was “does not induce translocation of insulin receptors” and the “Dkk1-induced translocation of β-arrestin1/2” value ([6]; MDC pretreatment) was “prevent the above translocation changes of β-arrestin1/2; also recorded: prevents the translocation of β-arrestin1/2 into cells”. For the same molecule, the “Dkk1-induced cardiac β-arrestin1/2 translocation” value ([7]; Dkk1 intracardiac injection with MDC or BIM-46187) was “inhibited”, the “Dkk1-induced cardiac changes (LRP5/6, γH2AX, p53, p21)” value ([7]; Dkk1 intracardiac injection with MDC pretreatment or combined with BIM-46187) was “reversed” and the “γH2AX signaling enhanced by H2O2 in the presence of Dkk1” value ([8]; Dkk1 then H2O2 50 μM) was “significantly attenuated”. The “H2O2-induced γH2AX activation” value ([8]; H2O2 50 μM, without Dkk1) was “does not prevent H2O2-induced γH2AX activation”, the “γH2AX response by the substance itself” value ([8]; no Dkk1, no H2O2) was “does not elicit γH2AX responses” and the “Dkk1-induced γH2AX activation” value ([8]; pretreatment with MDC or LRP6N protein) was “attenuated; also recorded: prevents”.

B1: Dkk1: recombinant mouse Dkk1 protein purchased from Genscript; secreted protein inducing LRP5/6 endocytosis (protein)
chain: TLNSVLINSNAIKNLPPPLGGAGGQPGSAVSVAPGVLYEGGNKYQTLDNYQPYPCAEDEECGSDEYCSSPSRGAAGVGGVQICLACRKRRKRCMRHAMCCPGNYCKNGICMPSDHSHFPRGEIEESIIENLGNDHNAAAGDGYPRRTTLTSKIYHTKGQEGSVCLRSSDCAAGLCCARHFWSKICKPVLKEGQVCTKHKRKGSHGLEIFQRCYCGEGLACRIQKDHHQASNSSRLHTCQRH
In the case of B1, the “survival of tumor-bearing mice” value [2] is reported as “significantly shorten the survival period of tumor-bearing mice”, the “membrane LRP6 and Kremen2 after intramuscular injection of Dkk1” value ([4]; Dkk1 alone, lower limbs of normal mice) is reported as “causes the endocytosis of LRP6 and Kremen2 on the membrane” and the “activation of GPCR signaling pathways and cachexia-related pathways” value [9] is reported as “immediately led to the activation of GPCR signaling pathways and cachexia-related pathways”. For the same molecule, the “β-arrestin1/2 translocation (cytoplasm / cell membrane)” value ([6]; Dkk1 stimulation alone) was “rapidly up-regulate β-arrestin1/2 in HUVEC cytoplasm and down-regulate β-arrestin1/2 on the cell membrane”, the “time after which nuclear β-catenin is down-regulated” value ([10]; Dkk1 100 ng/ml) was 60 min and the “time from which endocytosis of LRP5 on the cell membrane is induced” value ([10]; Dkk1 100 ng/ml) was 15 min. For the same molecule, the “time from which endocytosis of LRP6 on the cell membrane is induced” value ([10]; Dkk1 100 ng/ml) was 5 min, the “nuclear β-catenin expression within 30 min” value ([10]; higher doses of Dkk1) was “does not down-regulate nuclear β-catenin expression” and the “cardiac membrane LRP5/6, γH2AX, p53, p21 and β-catenin signaling” value ([7]; Dkk1 purified protein injected into myocardium, alone) was “directly induce the down-regulation of LRP5/6 and the up-regulation of γH2AX, p53 and p21 on the cardiac membrane without affecting β-catenin signaling”. For the same molecule, the “cardiac β-arrestin1/2 translocation” value ([7]; direct injection of Dkk1 into the heart, alone) was “induces down-regulation of membrane β-arrestin1/2 and plasma β-arrestin1/2 and nuclear β-arrestin1 are up-regulated”, the “translocation of insulin receptors in cardiac cells” value ([7]; direct injection of Dkk1 protein) was “do not undergo translocation changes” and the “time of peak γH2AX activation” value ([8]; Dkk1 100 ng/ml) was 15 min. The “time to significant γH2AX activation” value ([8]; Dkk1 100 ng/ml) was ≤ 5 min.
